Legend:
[1] = system: SA4247 Salmonella typhi cells expressing mutant Arabidopsis thaliana EPSPS; experiment: Glyphosate resistance assay (growth by optical density at 600 nm); assay type: cell-based; settings: 17 mM or 0 mM glyphosate, liquid M9 medium, OD 600 nm every hour for seven hours, compared to wild-type cells (FIG. 6)
Procedure: Electrocompetent cells of SA4247, a LacZ—Salmonella typhi strain, were prepared according to well known procedures (see Current Protocols in Molecular Biology, (Wiley and Sons, Inc.)). 30 μl of SA4247 competent cells were electroporated with 20 ng of each plasmid DNA encoding Arabidopsis wild-type and mutant EPSPS proteins, Bacillus wild-type EPSPS, along with a mock transfection as a control. The settings for electroporation were 25 μF, 2.5 KV and 200 ohms. After electroporation, the cells were transferred into 15 mls culture tube and supplemented with 970 μl of SOC medium. The cultures were incubated for 1½ hours at 37° C. at 225 rpm. 501 of each culture were plated onto LB plates containing 17 μg/ml chloramphenicol (in duplicates) and incubated overnight at 37° C. On the following day, 5 colonies of each plate were picked and transferred onto M9 plates and incubated overnight at 37° C.
Colonies from the overnight incubation on solid M9 were inoculated into 4 ml of liquid M9 medium and grown overnight at 37° C. On the following day, 25 ml of liquid M9 medium containing chloramphenicol, IPTG and 17 mM or 0 mM Glyphosate (Aldrich, 33775-7) were inoculated with 1-2 mls of each overnight culture (in duplicates), the starting OD (at 600 nm) was measured and all the cultures were normalized to start at the same OD. An OD measurement was taken every hour for seven hours. […]

[2] = target: wild-type EPSPS from E. coli (Escherichia coli, UniProt P0A6D3); settings: read-out: apparent Km for PEP; cited from earlier work
wild-type EPSPS from E. coli, sequence (P0A6D3 whole entry): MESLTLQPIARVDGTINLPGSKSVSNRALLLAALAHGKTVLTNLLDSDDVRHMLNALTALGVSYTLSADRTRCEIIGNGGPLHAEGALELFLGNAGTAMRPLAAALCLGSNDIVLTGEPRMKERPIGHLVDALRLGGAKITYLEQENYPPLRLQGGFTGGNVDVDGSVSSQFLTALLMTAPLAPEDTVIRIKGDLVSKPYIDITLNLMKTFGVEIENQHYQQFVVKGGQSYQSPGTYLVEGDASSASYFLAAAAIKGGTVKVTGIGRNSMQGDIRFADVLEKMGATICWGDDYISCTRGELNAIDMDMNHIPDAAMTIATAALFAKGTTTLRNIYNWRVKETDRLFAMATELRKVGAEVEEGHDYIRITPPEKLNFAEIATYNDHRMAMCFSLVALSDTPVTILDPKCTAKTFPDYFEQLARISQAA

With O=C(O)CNCP(=O)(O)O [glyphosate, N-phosphonomethylglycine] the “growth rate of cells containing a mutation in the EPSPS gene” value [1] was “substantially similar growth rate in the absence or presence of glyphosate”.

For C=C(OP(=O)(O)O)C(=O)O [PEP, phosphoenolpyruvic acid], the Km [2] is listed as 10 µM.

Source: patent US10035991B2, “Non-transgenic herbicide resistant plants” (priority 1999, dated 2018)
